According to patent publication EP0406958B1, “Positive inotropic and lusitropic 3,5-dihydroimidazo[2,1-b]quinazolin-2(1H)-one derivatives” (JANSSEN PHARMACEUTICA N.V., priority 1989, dated 1991):

How the values were obtained:
Human Platelet PDE IIIc = biological target: T1, Human Platelet PDE IIIc (Homo sapiens, UniProt Q14432); assay: Inhibition of phosphodiesterase type IIIc (3H-cAMP hydrolysis), human platelet enzyme; assay type: biochemical; conditions: pH 7.1, 1.2 µM 3H-cAMP, 10 min at 37°C; IC50 calculated graphically
T1 construct: canine heart and human platelet phosphodiesterase PDE IIIc; from tissue; host or cells: human platelets
T1 sequence (Q14432 whole entry): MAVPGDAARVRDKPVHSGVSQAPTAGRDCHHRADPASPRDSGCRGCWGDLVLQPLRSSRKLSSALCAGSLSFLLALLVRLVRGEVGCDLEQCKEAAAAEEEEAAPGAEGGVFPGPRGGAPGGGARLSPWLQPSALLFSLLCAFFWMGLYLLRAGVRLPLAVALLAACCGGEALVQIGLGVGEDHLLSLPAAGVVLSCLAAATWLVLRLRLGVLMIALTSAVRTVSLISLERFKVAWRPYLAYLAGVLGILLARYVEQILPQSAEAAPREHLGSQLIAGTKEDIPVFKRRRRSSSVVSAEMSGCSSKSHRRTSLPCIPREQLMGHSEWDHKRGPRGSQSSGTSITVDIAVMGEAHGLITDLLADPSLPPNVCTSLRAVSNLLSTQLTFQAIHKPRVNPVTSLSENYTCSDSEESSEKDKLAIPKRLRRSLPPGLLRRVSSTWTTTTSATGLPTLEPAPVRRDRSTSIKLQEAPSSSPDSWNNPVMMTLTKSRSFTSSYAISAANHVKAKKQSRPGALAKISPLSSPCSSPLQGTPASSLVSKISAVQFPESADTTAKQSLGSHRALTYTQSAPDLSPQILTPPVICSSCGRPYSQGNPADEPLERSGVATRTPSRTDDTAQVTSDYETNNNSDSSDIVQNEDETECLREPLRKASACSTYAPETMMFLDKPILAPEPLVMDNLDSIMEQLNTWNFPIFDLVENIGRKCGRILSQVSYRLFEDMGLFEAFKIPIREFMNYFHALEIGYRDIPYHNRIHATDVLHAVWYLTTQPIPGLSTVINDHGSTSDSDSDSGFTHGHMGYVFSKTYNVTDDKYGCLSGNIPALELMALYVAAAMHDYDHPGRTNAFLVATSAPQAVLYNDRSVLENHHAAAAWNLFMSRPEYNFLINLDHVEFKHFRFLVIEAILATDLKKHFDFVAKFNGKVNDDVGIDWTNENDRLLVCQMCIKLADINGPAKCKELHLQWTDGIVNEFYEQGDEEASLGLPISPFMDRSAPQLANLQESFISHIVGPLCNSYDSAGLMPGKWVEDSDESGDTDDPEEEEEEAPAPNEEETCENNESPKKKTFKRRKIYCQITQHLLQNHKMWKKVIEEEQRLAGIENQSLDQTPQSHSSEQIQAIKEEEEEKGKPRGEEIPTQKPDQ
Procedure: The incubation mixture (pH 7.1) (200 »l) contained 50mM 4-morpholinopropanesulfonic acid (MOPS), 1mM ethylenebis(oxyethylenenitrilo)tetraacetic acid (EGTA), 6 mM magnesium chloride, 0.25 mg/ml bovine serum albumin, 1.2 »M ³H-cAMP (310 mCi/mmole) and the phosphodiesterase type IIIc, and was prepared by dilution with water of a stock solution of MOPS, EGTA, MgCl₂, BSA and ³H-cAMP (50 »l) and 2 to 50 »l of a solution of phosphodiesterase type IIIc, depending on the enzymatic activity. […] When the effect of different compounds on phosphodiesterase activity was tested, the medium without cAMP was incubated with the compound(s) or its carrier (DMSO - 1% final concentration) for 5 min. The enzymatic reaction was started by addition of ³H-cAMP and stopped 10 min later after transferring the tubes in a waterbath at 100°C for 40 sec. After cooling to room temperature, alkaline phosphatase (0.25 »g/ml) was added and the mixture was left at room temperature for 20 min. The mixture was subsequently applied to a 1 ml DEAE-Sephadex A-25 column (pasteur pipet) and washed twice with 3 ml 20 mM Tris-HCl at pH 7.4. The ³H-labelled reaction products in the eluate were quantified by liquid scintillation counting. The inhibiting effect of the present compounds on canine heart and human platelet phosphodiesterase PDE IIIc was measured at different concentrations of the instant compounds. The IC₅₀ values were calculated graphically from the thus obtained inhibition values.

mongrel dogs [1] = assay: Haemodynamic variables in dogs after cumulative intravenous bolus administration; assay type: in vivo; conditions: maximum end-dose 0.16 mg kg-1 (comp. 14: 0.08 mg kg-1)
Procedure: Compound (9) was dissolved in 20% hydroxypropyl beta cyclodextrine ether slightly acidified with 1N HCl, in a concentration of 1mg.ml⁻¹ (pH 5.5). The experiments were performed on 7 mongrel dogs of either sex and varying age, ranging in body weight from 27 to 33 kg (median 30 kg). The animals were intravenously anaesthetized with a mixture of 0.015 mg.kg⁻¹ scopolamine and 0.05 mg.kg⁻¹ lofentanil. The animals were intubated with a cuffed endotracheal tube. Intermittent positive pressure ventilation was performed with a mixture of pressurized air and oxygen (60/40), using a volumecontrolled ventilator (Siemens Elema). In the control period the CO₂ concentration in the expired air (ET CO₂), as determined with a capnograph (Gould Godart), was kept at 5 vol% by adjustment of the respiratory volume (resp. rate = 20 breaths.min⁻¹). A continous intravenous infusion of 0.5 mg.kg⁻¹.h⁻¹ of etomidate was started immediately after induction. Body temperature was monitored with a thermistor positioned in the pulmonary artery. To prevent blood clotting heparine, 1000 IU.kg⁻¹ iv., was administered. The electrocardiogram (ECG) was derived from limb leads (standard lead 2). Left ventricular (LVP) and ascending aortic blood pressure (AoP) were measured by retrograde catheterisation via the femoral […] with high fidelity cathetertip micromanometers (Honeywell). The other femoral vein was cannulated for injection of saline at room temperature into the right atrium and for injection of compound (9). Peak ascending aortic blood flow velocity was measured through the right carotid artery with an electomagnetic catheter-tip probe connected to a square wave electomagnetic flow meter (Janssen Scientific Instruments). The following variables -inter alia- were calculated on-line, usually at 1 min intervals: heart rate (HR), diastolic (AoPd) aortic blood pressure, left ventricular end-diastolic pressure (LVEDP), the maximum positive and maximum negative rate of change of isovolumic LVP (LV dp/dt max and min, respectively), the maximum positive first derivative divided by the actually developed pressure in the left ventricle (LV dp/dtmax/Pd). The time constant (T) of relaxation was measured with the use of an exponential analysis that also estimated the asymptote. […] In the wash-out period the effects were followed for 75 min. […]

mongrel dogs [2] = assay: Positive inotropy and lusitropy, blood pressure and heart rate in anaesthetized dogs, slow intravenous infusion; assay type: in vivo; conditions: for cardiac output / heart rate: slow iv infusion over 120 min
Procedure: The positive inotropic and lusitropic effect of the instant compounds were assessed by an in vitro assay system to detect inhibiting effect on the phosphodiesterase type IIIc and in an in vivo experiment in closed-chest anaestetized dogs by monitoring cardiac and haemodynamic effects of an intravenous infusion of the instant compounds.
Compound (9) was dissolved in 20% hydroxypropyl beta cyclodextrine ether slightly acidified with 1N HCl, in a concentration of 1mg.ml⁻¹ (pH 5.5). The experiments were performed on 7 mongrel dogs of either sex and varying age, ranging in body weight from 27 to 33 kg (median 30 kg). The animals were intravenously anaesthetized with a mixture of 0.015 mg.kg⁻¹ scopolamine and 0.05 mg.kg⁻¹ lofentanil. The animals were intubated with a cuffed endotracheal tube. Intermittent positive pressure ventilation was performed with a mixture of pressurized air and oxygen (60/40), using a volumecontrolled ventilator (Siemens Elema). In the control period the CO₂ concentration in the expired air (ET CO₂), as determined with a capnograph (Gould Godart), was kept at 5 vol% by adjustment of the respiratory volume (resp. rate = 20 breaths.min⁻¹). A continous intravenous infusion of 0.5 mg.kg⁻¹.h⁻¹ of etomidate was started immediately after induction. Body temperature was monitored with a thermistor positioned in the pulmonary artery. To prevent blood clotting heparine, 1000 IU.kg⁻¹ iv., was administered. The electrocardiogram (ECG) was derived from limb leads (standard lead 2). Left ventricular (LVP) and ascending aortic blood pressure (AoP) were measured by retrograde catheterisation via the femoral […] with high fidelity cathetertip micromanometers (Honeywell). The other femoral vein was cannulated for injection of saline at room temperature into the right atrium and for injection of compound (9). Peak ascending aortic blood flow velocity was measured through the right carotid artery with an electomagnetic catheter-tip probe connected to a square wave electomagnetic flow meter (Janssen Scientific Instruments). The following variables -inter alia- were calculated on-line, usually at 1 min intervals: heart rate (HR), diastolic (AoPd) aortic blood pressure, left ventricular end-diastolic pressure (LVEDP), the maximum positive and maximum negative rate of change of isovolumic LVP (LV dp/dt max and min, respectively), the maximum positive first derivative divided by the actually developed pressure in the left ventricle (LV dp/dtmax/Pd). The time constant (T) of relaxation was measured with the use of an exponential analysis that also estimated the asymptote. After a recorded control period of 20 min the intravenous infusion of compound (9) was started at a rate of […]. In the wash-out period the effects were followed for 75 min. […] These positive inotropic and lusitropic, and vasodilatory effects of the compound (9) are long-lasting, since the changes in the variables last for more than 75 min after stopping the infusion of a total dose of 0.60 mg.kg⁻¹. […]

[3] = slow infusion (0.005 mg kg-1 min-1) for two hours

With `O=C1CN2Cc3cc(C(=NO)c4ccccc4)ccc3N=C2N1` [compound 2, (E+Z)-3,5-dihydro-7-[(hydroxyimino)phenylmethyl]imidazo[2,1-b]quinazolin-2(1H)-one] the IC50 (Human Platelet PDE IIIc) was 0.19 µM, the “% changes in haemodynamic variables: AoPd (diastolic aortic blood pressure)” value (shortened to “% changes … (diastolic aortic blood pressure)”) (mongrel dogs [1]) was -10% and the “% changes in haemodynamic variables: HR (heart rate)” value (shortened to “% changes … (heart rate)”) (mongrel dogs [1]) was 15%. The “% changes in haemodynamic variables: LVdp/dtmax/Pd (positive inotropic effect)” value (mongrel dogs [1]) was 102% and the “% changes in haemodynamic variables: T (time constant of relaxation, positive lusitropy)” value (from here on “% changes in haemodynamic variables: T”) (mongrel dogs [1]) was -38%.
For `O=C1CN2Cc3cc(/C(=N/O)c4ccccc4)ccc3N=C2N1` [compound 3, (E)-3,5-dihydro-7-[(hydroxyimino)phenylmethyl]imidazo[2,1-b]quinazolin-2(1H)-one], the IC50 (Human Platelet PDE IIIc) was 0.19 µM, the cardiac output (mongrel dogs [2]; anaesthetized mongrel dogs) was “increase in cardiac output” and the heart rate (mongrel dogs [2]; anaesthetized mongrel dogs) was “without changing the heart rate”. The “cardiac inotropy and lusitropy” value (mongrel dogs [2]; [3]) was “dose-related increase”, the “duration of effects after stopping the infusion” value (mongrel dogs [2]; [3]) was “more than 90 minutes” and the systemic vasodilation (mongrel dogs [2]; [3]) was “dose-related systemic vasodilation”.
`CCOC(=O)CON=C(c1ccccc1)c1ccc2c(c1)CN1CC(=O)NC1=N2` [compound 6] was tested, and the IC50 (Human Platelet PDE IIIc) was 0.38 µM, the “% changes … (diastolic aortic blood pressure)” value (mongrel dogs [1]) was -13% and the “% changes … (heart rate)” value (mongrel dogs [1]) was 9%. The “% changes in haemodynamic variables: LVdp/dtmax/Pd (positive inotropic effect)” value (mongrel dogs [1]) was 31% and the “% changes in haemodynamic variables: T” value (mongrel dogs [1]) was -15%.
With `CN(C(=O)CON=C(c1ccccc1)c1ccc2c(c1)CN1CC(=O)NC1=N2)C1CCCCC1` [compound 8] the IC50 (Human Platelet PDE IIIc) was 0.058 µM, the “% changes … (diastolic aortic blood pressure)” value (mongrel dogs [1]) was 0% and the “% changes … (heart rate)” value (mongrel dogs [1]) was 0%. For the same compound, the “% changes in haemodynamic variables: LVdp/dtmax/Pd (positive inotropic effect)” value (mongrel dogs [1]) was 29% and the “% changes in haemodynamic variables: T” value (mongrel dogs [1]) was -45%.
With `CN(C(=O)CO/N=C(\c1ccccc1)c1ccc2c(c1)CN1CC(=O)NC1=N2)C1CCCCC1` [compound 9, (E)-N-cyclohexyl-N-methyl-2-[[[phenyl(1,2,3,5-tetrahydro-2-oxoimidazo[2,1-b]quinazolin-7-yl)methylene]amino]oxy]acetamide] the IC50 (Human Platelet PDE IIIc) was 0.025 µM, the “variables related to cardiac performance (LV dp/dtmax, LV dp/dtmax/Pd)” value (mongrel dogs [2]; 7 anaesthetized mongrel dogs, iv infusion over 120 min, starting after 10 min of infusion (0.05 mg.kg-1 total dose)) was “pronounced and significant increase” and the “left ventricular end-diastolic pressure (preload)” value (mongrel dogs [2]; anaesthetized mongrel dogs, iv infusion over 120 min) was “no change or even a slight decrease”. The “time constant of relaxation” value (mongrel dogs [2]; anaesthetized mongrel dogs, iv infusion, starting after 10 min of infusion (0.05 mg.kg-1 total dose)) was “significant decrease”, the “Systemic and pulmonary peripheral vascular resistance” value (mongrel dogs [2]; anaesthetized mongrel dogs, iv infusion, starting after 20 min of infusion (0.10 mg.kg-1 total dose)) was “decrease significantly” and the cardiac output (mongrel dogs [2]; anaesthetized mongrel dogs) was “concomitant increase in cardiac output”. The heart rate (mongrel dogs [2]; anaesthetized mongrel dogs) was “no change in heart rate” and the “duration of the changes in the variables after stopping the infusion” value (mongrel dogs [2]; positive inotropic, lusitropic and vasodilatory effects, total dose of 0.60 mg.kg-1) was “more than 75 min”.
`CN(C(=O)CO/N=C(/c1ccccc1)c1ccc2c(c1)CN1CC(=O)NC1=N2)C1CCCCC1` [compound 10, (Z)-N-cyclohexyl-N-methyl-2-[[[phenyl(1,2,3,5-tetrahydro-2-oxoimidazo[2,1-b]quinazolin-7-yl)methylene]amino]-oxy]acetamide] was tested, and the IC50 (Human Platelet PDE IIIc) was 0.14 µM, the “% changes … (diastolic aortic blood pressure)” value (mongrel dogs [1]) was -5% and the “% changes … (heart rate)” value (mongrel dogs [1]) was 0%. For the same compound, the “% changes in haemodynamic variables: LVdp/dtmax/Pd (positive inotropic effect)” value (mongrel dogs [1]) was 18% and the “% changes in haemodynamic variables: T” value (mongrel dogs [1]) was -13%.
In the case of `COc1ccc(C(=O)c2ccc3c(c2)CN2CC(=O)NC2=N3)cc1` [compound 12], the “% changes … (diastolic aortic blood pressure)” value (mongrel dogs [1]) is reported as 0%, the “% changes … (heart rate)” value (mongrel dogs [1]) is reported as 10% and the “% changes in haemodynamic variables: LVdp/dtmax/Pd (positive inotropic effect)” value (mongrel dogs [1]) is reported as 57.5%. The “% changes in haemodynamic variables: T” value (mongrel dogs [1]) was -10%.
`COc1ccc(C(=NO)c2ccc3c(c2)CN2CC(=O)NC2=N3)cc1` [compound 13] was tested, and the “% changes … (diastolic aortic blood pressure)” value (mongrel dogs [1]) was 0%, the “% changes … (heart rate)” value (mongrel dogs [1]) was -10% and the “% changes in haemodynamic variables: LVdp/dtmax/Pd (positive inotropic effect)” value (mongrel dogs [1]) was 45%. The “% changes in haemodynamic variables: T” value (mongrel dogs [1]) was -27%.
In the case of `O=C1CN2Cc3cc(C(=O)c4ccc(F)cc4)ccc3N=C2N1` [compound 14], the IC50 (Human Platelet PDE IIIc) is reported as 0.52 µM, the “% changes … (diastolic aortic blood pressure)” value (mongrel dogs [1]) is reported as 0% and the “% changes … (heart rate)” value (mongrel dogs [1]) is reported as 5%. The “% changes in haemodynamic variables: LVdp/dtmax/Pd (positive inotropic effect)” value (mongrel dogs [1]) was 35% and the “% changes in haemodynamic variables: T” value (mongrel dogs [1]) was -16%.
`COc1ccc(C(=O)c2ccc3c(c2)CN2CC(=O)NC2=N3)cc1OC` [compound 24] gave an IC50 (Human Platelet PDE IIIc) of 0.34 µM.
With `CCOC(=O)C=C(c1ccccc1)c1ccc2c(c1)CN1CC(=O)NC1=N2` [compound 32] the IC50 (Human Platelet PDE IIIc) was 0.084 µM.
